Assays:
786-O cells = assay: VEGF ELISA Assay; format: cell-based
Method: Each concentration had duplicated wells. About 20 hours later, medium was removed by suction and each well was supplied with 180 μL of growth medium. About 20 μl freshly-made 10× compound stocks were added to each well. […] The EC50 was calculated by GraphPad Prism using the dose-response-inhibition (four parameter) equation. The cell seeded plate was then subjected to CellTiter-Glo luminescence cell viability assay (Promega) by adding 50 μL of Celltiter Glo reagent into each well and shaking the plate for 8 minutes at 550 rpm (Thermomixer R, Eppendorf) then read luminescence signal in plate reader (3 second delay, 0.5 second/well integration time, Synergy 2 multi Detection Microplate reader) immediately.

[1] = test system: HIF-2α HIS TAG-PASB Domain; assay: HIF-2α Scintillation Proximity Assay (SPA); format: binding
Method: The percent inhibition was determined and IC50 values were calculated using the Dotmatics system based on the following equation: % inhibition=[(high control−sample)/(high control−low control)]×100.

786-O-Hif-Luc cells = assay: Luciferase Assay; format: cell-based; settings: about 24 hours, read-out: Mean Luciferease EC50
Method: A pool of infected cells were then selected against 2 μg/mL of puromycin (P8833, Sigma) for 10 days followed by limited dilution to select single clones.
Each concentration was tested in triplicate. After about 24 hours, luciferase activity was determined using ONE-Glo Luciferase Assay Reagent (E6110, Promega) following the manufacturer's recommended procedure. EC50 were calculated by using Dotmatics software.

[2] = test system: 786-O renal cell carcinoma xenograft; assay: In vivo efficacy study, 786-O xenograft; parameters: species or system SCID/Biege mice; settings: for Tumor size Mean ± SEM: after 20 days of dosing
human VEGFA [3] = assay: plasma human VEGF level of 786-O xenograft bearing mice; format: in vivo; settings: 10, 30 and 100 mg/kg three times at 12 hour intervals, 12 h post treatment vs prior to treatment, FIG. 5
mouse kidney = assay: In vivo PK/PD study, kidney mRNA levels by qRT-PCR; parameters: species or system SCID/Biege mice; settings: FIG. 3
Method: About 5×10^6 renal cell carcinoma 786-O tumor cells (ATCC® CRL-1932™, VHL and HIF-1α null cell line) in PBS and Matrigel (1:1 in volume) were injected subcutaneously at the right flanks of SCID/Biege mice at 6-7 weeks of age for xenograft development. When the xenografts reached about 450 mm^3 in size, the tumor bearing mice were randomly divided into 4 groups (n=4). Plasma was collected prior to treatment by retro-orbital bleeding. […] All animals were sacrificed at 12 hours post last dose. Tumor, kidney, and plasma were collected from each animal. Total RNA was extracted from the tumors and kidneys. The mRNA levels of HIF-1α, HIF-2α and their respective target genes were determined by qRT-PCR (FIG. 1).

human VEGFA [4] = assay: In vivo PK/PD study, plasma human VEGFA by ELISA; parameters: species or system SCID/Biege mice; settings: 786-O tumor-bearing mice; 10, 30 or 100 mg/kg; FIG. 5
[5] = test system: renal cell carcinoma 786-O xenograft; assay: tumor size in 786-O xenograft bearing mice, single agent; format: in vivo; settings: 3, 10, 30 and 100 mg/kg BID for 20 days, FIG. 7

EC50 (786-O cells; 786-O cells) | IC50 [1] | EC50 (786-O-Hif-Luc cells) | SMILES | further results
– | < 5 nM | 13 nM | N#Cc1cc(F)cc(Oc2ccc(S(=N)(=O)C(F)(F)F)c3c2CC(F)(F)[C@H]3O)c1 (single isomer, unassigned) [Example 305] | EC50 (786-O cells; Homo sapiens, 786-0, 786-O cells): 19.5 nM
19.2 nM | < 5 nM | 30 nM | N#Cc1cc(F)cc(Oc2ccc(S(=N)(=O)C(F)(F)F)c3c2CC(F)(F)[C@H]3O)c1 (single isomer, unassigned) [Example 306] | –
14 nM | < 5 nM | 12 nM | CS(=O)(=NC#N)c1ccc(Oc2cc(F)cc(C#N)c2)c2c1[C@H](O)C(F)(F)[C@@H]2F (single isomer, unassigned) [Example 317] | –

The remaining lines, values behind:

SMILES | EC50 (786-O cells; 786-O cells) | IC50 [1] | EC50 (786-O-Hif-Luc cells) | further results
CS(=O)(=NC#N)c1ccc(Oc2cc(F)cc(C#N)c2)c2c1[C@H](O)C(F)(F)C2 (single isomer, unassigned) [Example 245] | 160 nM | 32 nM | 61 nM | –
N#Cc1cc(F)cc(Oc2ccc(S(=O)(=O)C(F)F)c3c2CC(F)(F)[C@H]3O)c1 [Compound 15, 3-[(1S)-7-(difluoromethylsulfonyl)-2,2-difluoro-1-hydroxy-indan-4-yl]oxy-5-fluoro-benzonitrile] | – | – | – | Tumor size Mean ± SEM ([2]; 3 mg/kg BID): 136.29 ± 15.77 mm^3; Tumor size Mean ± SEM ([2]; 10 mg/kg BID): 45.36 ± 2.22 mm^3; Tumor size Mean ± SEM ([2]; 30 mg/kg BID): 35.63 ± 2.26 mm^3; Tumor size Mean ± SEM ([2]; 100 mg/kg BID): 37.11 ± .6 mm^3; Tumor size change vs vehicle ([2]; 3, 10, 30 and 100 mg/kg BID, 20 days, t-Test): statistically significant reduction of tumor size; plasma level of human VEGFA (human VEGFA [3]): reduced; Kidney EPO mRNA level (mouse kidney): reduced; Kidney PGK1 mRNA level (mouse kidney): remained unchanged; plasma level of human VEGFA (human VEGFA [4]): significant reduction; tumor size [5]: tumor size reduction and regression

Reference: patent publication US9896418B2, “Aryl ethers and uses thereof” (Peloton Therapeutics, Inc., priority 2013, dated 2018)
